In series [1] the test system is A549. The series can be described thus: Induction of apoptosis in human A549 cells assessed as chromatin condensation at 10 uM after 6 to 24 hrs by Hoechst 33258 staining based fluorescence microscopic method. The format is functional, cell-based.
Series [2] deals with A549. As to the kind of experiment: Inhibition of autophagic flux in human A549 cells assessed as increase in p62 protein level at 10 uM after 24 hrs in presence of V-ATPase inhibitor bafilomycin-A1 by Western blot analysis. The format is functional, cell-based. For orientation: A western blot detects proteins with antibodies after separation by electrophoresis.
In series [3] the test system is A549. As to the kind of experiment: Inhibition of autophagic flux in human A549 cells assessed as increase in p62 protein level at 10 uM after 24 hrs by Western blot analysis. The format is functional, cell-based.
Series [4] has as its system A549. The series can be described thus: Induction of necrosis in human A549 cells at 10 to 20 uM after 48 hrs by LDH release assay. Type of series: functional, cell-based. (Release of lactate dehydrogenase indicates damage to the cell membrane.)
The target in series [5] is T1, Heat shock protein HSP90 (Homo sapiens) (UniProt P07900+P08238). The series can be described thus: Inhibition of anti-HSP90 antibody binding to HSP90 in human A549 cells preincubated for 1 hr followed by antibody addition by Western blot analysis. The format is cell-based.
For series [6], the system named is A549. As to the kind of experiment: Inhibition of autophagic flux in human A549 cells assessed as increase in LC3-2 protein level at 10 uM after 24 hrs in presence of V-ATPase inhibitor bafilomycin-A1 by Western blot analysis. The format is functional, cell-based.
For series [7], the system named is A549. The series can be described thus: Induction of apoptosis in human A549 cells assessed as DNA fragmentation at 10 uM after 6 to 24 hrs by Hoechst 33258 staining based fluorescence microscopic method. The format is functional, cell-based.
Series [8] has as its system A549. The series can be described thus: Growth inhibition of human A549 cells after 48 hrs by SRB assay. The format is functional, cell-based. The settings on record: for IC50: A549, 48 h. On the technique in general: In SRB staining, fixed cells bind dye roughly in proportion to their protein.
Series [9] concerns A549. As to the kind of experiment: Inhibition of autophagic flux in human A549 cells assessed as increase in LC3-2 protein level at 10 uM after 24 hrs by Western blot analysis. Type of series: functional, cell-based.
For series [10], the target named is T1, Heat shock protein HSP90 (Homo sapiens). As to the kind of experiment: Inhibition of HSP90 in human A549 cells assessed as reduction in AKT protein expression at 10 uM up to 48 hrs by Western blot analysis. The format is cell-based.
The test system of series [11] is A549. The series can be described thus: Upregulation of HSP70 protein expression in human A549 cells at 10 uM up to 48 hrs by Western blot analysis. The conditions noted are these: a549, 48 h. Type of series: cell-based.
Series [12] addresses T1, Heat shock protein HSP90 (Homo sapiens). The series can be described thus: Inhibition of HSP90 in human A549 cells assessed as reduction in NFkB p65 protein expression at 10 uM up to 48 hrs by Western blot analysis. The format is cell-based.
Series [13] concerns A549. As to the kind of experiment: Effect on HSP90 protein expression in human A549 cells at 10 uM up to 48 hrs by Western blot analysis. The format is cell-based. The conditions noted are these: a549, 48 h.
Series [14] concerns HUVEC. As to the kind of experiment: Cytotoxicity against HUVEC assessed as reduction in cell viability after 48 hrs by SRB assay. Type of series: cell-based. The settings on record: human.
The test system of series [15] is A549. As to the kind of experiment: Growth inhibition of human A549 cells up to 20 uM up to 48 hrs by SRB assay. Type of series: functional, cell-based.

SMILES strings stand for the structures. Calls of active or inactive are those of the source. The rule behind the calls is not given here.

For orientation: IC50 means the concentration at which inhibition is half-maximal. High values mean weaker potency in that assay, low ones greater potency in that assay. For `O=c1oc2cc(O)ccc2cc1C1=NN(c2ccc(F)cc2)C(c2ccccc2)C1` (stereo unspecified), the result in series [1], in series [3], in series [7] and in series [9] was Active. The result in series [2], in [4] and in series [6] was inactive. Besides, the inhibition entry in series [5] is “Dose-dependent effect”. For the same molecule, the “growth inhibition (GI)” value in series [8] was “Dose-dependent effect”. For the same molecule, the half-maximal inhibitory concentration (IC50) in series [8] stood at 7.2 µM.
For `COc1ccc(C2CC(c3cc4ccc(O)cc4oc3=O)=NN2c2ccccc2)cc1` (stereo unspecified), the outcome in series [1], in series [3], in series [7] and in series [9] was Active. Also, the outcome in series [2], in [4] and in [6] was inactive. Besides, in series [5], the inhibition result is “Dose-dependent effect”. In addition, the “growth inhibition (GI)” value in [8] is “Dose-dependent effect”. The molecule also gave an IC50 in series [8] of 6.3 µM.
As to `O=c1oc2cc(O)ccc2cc1C1=NN(c2ccccc2)C(c2ccccc2)C1` (stereo unspecified), the inhibition result in series [10] and in [12] was “Active” each time. In addition, the Activity result in [11], in series [13] and in series [14] was “Non-Toxic” in each case. Moreover, the result in [1], in series [3], in series [7] and in [9] was Active. Further, the result in series [2], in [4] and in [6] was inactive. Further, the inhibition entry in series [5] was “Dose-dependent effect”. Moreover, the “growth inhibition (GI)” value in series [8] is “Dose-dependent effect”. In series [8], this molecule gave an IC50 of 4.7 µM.
Consider `COc1ccc(C2CC(c3cc4ccc(O)cc4oc3=O)=NN2c2ccc(Br)cc2)cc1` (stereo unspecified), for which the result in series [1], in [3], in [7] and in series [9] was Active. The result in series [2], in series [4] and in series [6] was inactive. In addition, the inhibition result in [5] is “Dose-dependent effect”. Besides, the “growth inhibition (GI)” value in [8] was “Dose-dependent effect”. Moreover, the IC50 in series [8] came to 6.5 µM.
In the case of `COc1ccc(C2CC(c3cc4ccc(O)cc4oc3=O)=NN2c2ccc(F)cc2)cc1` (stereo unspecified), the outcome in series [1], in series [3], in series [7] and in series [9] was Active. For the same molecule, the outcome in series [2], in series [4] and in series [6] was inactive. In addition, the inhibition result in [5] is “Dose-dependent effect”. Moreover, the “growth inhibition (GI)” value in series [8] was “Dose-dependent effect”. This molecule also registered an IC50 in series [8] of 7.1 µM.
With `COc1ccc(C2CC(c3cc4ccc(O)cc4oc3=O)=NN2c2ccc(Cl)cc2)cc1` (stereo unspecified), the outcome in series [1], in [3], in series [7] and in series [9] was Active. Besides, the result in [2], in series [4] and in [6] was inactive. Further, in series [5], the inhibition result was “Dose-dependent effect”. Moreover, the “growth inhibition (GI)” value in series [8] is “Dose-dependent effect”. The molecule also returned an IC50 in series [8] of 9.6 µM.
In the case of `O=c1[nH]cc(F)c(=O)[nH]1`, in series [15], the “growth inhibition (GI)” value is “inactive”.

Source of the values: ChEMBL document CHEMBL4145482, “Discovery of novel HSP90 inhibitors that induced apoptosis and impaired autophagic flux in A549 lung cancer cells” (Eur J Med Chem, 2018).
